The values that follow come from patent publication US20240285543A1, “NANOPARTICLE-MEDIATED ENHANCEMENT OF IMMUNOTHERAPY TO PROMOTE FERROPTOSIS-INDUCED CYTOTOXICITY AND ANTITUMOR IMMUNE RESPONSES” (Memorial Sloan-Kettering Cancer Center, priority 2021, published 2024).

The subject of one series is B16-F10 tumors. Nature of the series: B16-F10 melanoma tumor growth inhibition and TME analysis. Format: in vivo, mice. From the text:
FIGS. 15A-15C show C′ dots inhibit melanoma tumor growth via ferroptotic induction and pro-inflammatory responses. […] Data represents analyses of n=4 mice per group, mean±s.e.m. *p<0.05 (non-parametric 2-way ANOVA).
Data represent mean±s.e.m. **** saline-PD1: P=0.0001; **** saline-alpha-MSH: P=0.0001; **** saline-(anti-PD1+alpha-MSH): P<0.0001; **PD1-(anti-PD1+alpha-MSH): P=0.0017; **alpha-MSH-(anti-PD1+alpha-MSH): P=0.0017.
The present example describes a statistically significant and marked drop in tumor volume (red curve) to nearly 65% of control values (blue curve) following a multiple, high-dose (60 μM) regimen of i.v.-injected αMSH-PEG-C′ dots in B16-F10 mice when tumors reached […]. […] To evaluate the extent of immune cell infiltration, IHC was performed to assess for Iba1, CD3, CD4, and CD8 expression, with results graphically depicted in FIG. 15C. […]
Particles have been either injected as multiple doses (n=3) alone or concomitantly with either the first three doses (“early”, on days 7, 10, and 13) or the final three doses (“late”, on days 16, 19, and 22) of anti-PD-1 (250 μg/mouse), anti-CTLA4 (100 μg/mouse), or anti-PD-1+anti-CTLA4 antibody regimens (see FIG. 12). […] It can then be determined whether the order of administration of these agents is important in terms of modulating overall treatment responses.

The target in series [1] is T1, PSMA (Homo sapiens, UniProt Q04609). Also on record: compiled for 40 patients treated with ^225Ac-PSMA-617; host or cells: patients (mCRPC). As to conditions: cited from earlier work; for clinical response: mCRPC patients.
Target sequence in this assay (Q04609 whole entry): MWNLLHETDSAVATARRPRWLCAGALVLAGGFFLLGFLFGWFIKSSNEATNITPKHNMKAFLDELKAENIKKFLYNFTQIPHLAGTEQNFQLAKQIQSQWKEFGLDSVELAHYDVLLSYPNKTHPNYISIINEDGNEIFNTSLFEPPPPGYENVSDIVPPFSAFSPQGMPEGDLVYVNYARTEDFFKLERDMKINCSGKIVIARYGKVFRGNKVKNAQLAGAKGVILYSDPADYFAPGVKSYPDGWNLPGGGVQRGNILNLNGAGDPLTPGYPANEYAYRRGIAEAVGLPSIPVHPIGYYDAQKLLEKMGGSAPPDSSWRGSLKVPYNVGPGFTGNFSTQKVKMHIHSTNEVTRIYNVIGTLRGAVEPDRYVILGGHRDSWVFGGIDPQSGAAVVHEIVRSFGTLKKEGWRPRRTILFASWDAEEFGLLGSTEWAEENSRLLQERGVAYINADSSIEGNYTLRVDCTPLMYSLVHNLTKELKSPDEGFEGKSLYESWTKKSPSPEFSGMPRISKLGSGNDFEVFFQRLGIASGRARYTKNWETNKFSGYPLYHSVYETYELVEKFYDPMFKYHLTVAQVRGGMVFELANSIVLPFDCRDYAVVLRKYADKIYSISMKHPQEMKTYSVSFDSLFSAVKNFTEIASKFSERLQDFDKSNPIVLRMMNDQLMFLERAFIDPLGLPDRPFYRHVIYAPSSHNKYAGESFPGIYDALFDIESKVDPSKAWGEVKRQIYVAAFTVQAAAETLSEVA
A further series concerns MC1-R. Nature of the series: IC50 (M). From the text:
Table printed on a drawing sheet, FIG. 13F
(§1) Head of the field: IC50 (M)
The patent's description of the figure: FIGS. 13A-13F show characterization of a lead alpha-MSH peptide-linker conjugate. Structural schematics of representative alpha-MSH peptides. […] FIG. 13B, FIG. 13C each show second generation peptides with reduced hydrophobicity containing PEG2 and one Ahx spacer: (FIG. 13B) PEG2-Ahx-d-Lys-alpha-MSH (yellow closed circle in FIG. 13E); and (FIG. 13C) PEG2-d-Lys-Ahx-alpha-MSH (green triangle in FIG. 13E). […] FIG. 13E and FIG. 13F show IC50 determination of MC1-R targeting Re-cyclized and lactam-cyclized peptides.
First copying reader's note: IC50 values belong to the competitive binding curves of FIG. 13E on the same sheet.
Where the first naming reader finds the target: head: MC1-R-Targeting Peptide Linker Sequences

The target in series [2] is T1, PSMA.
Description: Table printed on a drawing sheet, FIG. 25
as §1
Target sequence in this assay (Q04609 whole entry, looked up): as the sequence (Q04609 whole entry) above
The patent's description of the figure: FIG. 25 show PSMA-targeting peptide-linkers, according to embodiments of the present disclosure.
Where the first naming reader finds the target: head: PSMA-Targeting Peptide-Linker Sequences

Consider `Clc1cccc(CN=C2Nc3ccccc3NC23CCNCC3)c1` [liproxstatin-1], for which, in the series on B16-F10 tumors (after final dose), the “H&E staining of tumor tissue” value is on record as “reversed”. For the same compound, the “effect of i.p. liproxstatin-1 on particle-induced tumor volume drop” value in the series with B16-F10 tumors (mouse, in vivo, ip) was “substantially attenuated”.
As for `O=C([O-])CC[C@H](NC(=O)N[C@@H](CCCCNC(=O)[C@H](Cc1ccc2ccccc2c1)NC(=O)[C@H]1CC[C@H](CNC(=O)CN2CCN(CC(=O)[O-])CCN(CC(=O)[O-])CCN(CC(=O)[O-])CC2)CC1)C(=O)[O-])C(=O)[O-].[225Ac].[H+].[H+].[H+]` [^225Ac-PSMA-617], the salivary gland toxicity result on PSMA [1] (40 patients) was “frequent occurrence of severe xerostomia”. The “patients who discontinued treatment due to xerostomia” value on PSMA [1] (clinical trial) is reported as ~23%. The clinical response entry at PSMA [1] was “remarkable results”.
Turning to “Ac-Cys-(Ahx)2-dLys-Re(CCMSH) [Prototype αMSH]”, the midpoint of inhibition in the series with MC1-R, the IC50, lay at 7 nM.
At PSMA [2], `CC(=O)N[C@@H](CS)C(=O)NCCCCCC(=O)NCCCCCC(=O)N[C@H](CCCCN)C(=O)NCCCCCC(=O)NCCCC[C@H](NC(=O)N[C@@H](CCC(=O)O)C(=O)O)C(=O)O` [Prototype PSMAi, hooc-Lys(-Ahx-dLys(-nh2)-(Ahx)2-Cys-Ac)-'CO'-Glu-cooh] came in with a half-maximal inhibitory concentration (IC50) of 4.5 nM.
“Ac-Cys-PEG2-dLys-Ahx-Nle-Re(CCMSH) [2nd gen αMSH (#2)]” gave an IC50 in the series on MC1-R of 71 nM.
`O=C(O)CC[C@H](NC(=O)N[C@@H](CCCCNC(=O)[C@H](Cc1ccc2ccccc2c1)NC(=O)[C@H]1CC[C@H](CNC(=O)CN2CCN(CC(=O)O)CCN(CC(=O)O)CCN(CC(=O)O)CC2)CC1)C(=O)O)C(=O)O` [PSMA-617, hooc-Lys(-2Nal-Tran-DOTA)-'CO'-Glu-cooh] showed an IC50 on PSMA [2] of 21 nM.
For `O=C([O-])CN1CCN(CC(=O)[O-])CCN(CC(=O)NCC2CCC(C(=O)N[C@@H](Cc3ccc4ccccc4c3)C(=O)NCCCC[C@H](NC(=O)N[C@@H](CCC(=O)O)C(=O)O)C(=O)O)CC2)CCN(CC(=O)[O-])CC1.[177Lu+3]` (stereo partly shown) [^177Lu-PSMA-617], the clinical response entry at PSMA [1] was “high response rate”.

By IC50 is commonly meant the midpoint of a concentration-inhibition curve.
